pIC50: −log10 of the molar value.
What was measured:
[1] = biological target: Tubulin (Bos taurus, UniProt Q6B856+Q862L2+Q862F3); test: Inhibition of bovine brain tubulin polymerization after 20 mins by turbidimetric analysis
[2] = test system: MCF7; test: cells; conditions: Homo sapiens, MCF7, 24 h
Description: Antiproliferative activity against human MCF7 cells assessed as reduction in cell viability after 24 hrs by MTT assay

[3] = test system: A549; test: cells; conditions: Homo sapiens, A549, 24 h
Description: Antiproliferative activity against human A549 cells assessed as reduction in cell viability after 24 hrs by MTT assay

[4] = test system: HepG2; test: cells; conditions: Homo sapiens, HepG2, 24 h
Description: Antiproliferative activity against human HepG2 cells assessed as reduction in cell viability after 24 hrs by MTT assay

O=C(c1ccc(Br)cc1)N1N=C(c2ccc(Br)cc2)CC1c1ccc2c(c1)OCO2 (configuration not stated) was tested, and the IC50 [1] was > 40 µM, the pIC50 [2] was < 5.00 and the pIC50 [3] was < 5.00. For the same compound, the pIC50 [4] was < 5.00.

Compound COc1ccc(C2=NN(C(=O)c3cc(OC)c(OC)c(OC)c3)C(c3ccc4c(c3)OCO4)C2)cc1OC (configuration not stated) has an IC50 [1] of 2.13 µM, a pIC50 [2] of 7.15 and a pIC50 [3] of 7.10. It also gave a pIC50 [4] of 7.22.

For Cc1cccc(C2=NN(C(=O)c3ccc(Br)cc3)C(c3ccc4c(c3)OCO4)C2)c1 (configuration not stated), the IC50 [1] was > 40 µM, the pIC50 [2] was < 5.00 and the pIC50 [3] was < 5.00. The pIC50 [4] was < 5.00.

For COc1cc(C(=O)N2N=C(c3cc(OC)c(OC)c(OC)c3)CC2c2ccc3c(c2)OCO3)cc(OC)c1OC (configuration not stated), the IC50 [1] was 11.37 µM, the pIC50 [2] was 5.49 and the pIC50 [3] was 5.65. It also gave a pIC50 [4] of 5.50.

With COc1cc(C(=O)N2N=C(c3ccc(Cl)cc3)CC2c2ccc3c(c2)OCO3)cc(OC)c1OC (configuration not stated) the IC50 [1] was 18.02 µM, the pIC50 [2] was 5.37 and the pIC50 [3] was 5.51. For the same compound, the pIC50 [4] was 5.50.

COc1cc(C(=O)N2N=C(c3cccc(Cl)c3)CC2c2ccc3c(c2)OCO3)cc(OC)c1OC (configuration not stated) was tested, and the IC50 [1] was > 40 µM, the pIC50 [2] was 5.03 and the pIC50 [3] was 5.15. The pIC50 [4] was 5.15.

For COc1cc(C(=O)N2N=C(c3ccc(Br)cc3)CC2c2ccc3c(c2)OCO3)cc(OC)c1OC (configuration not stated), the IC50 [1] was 19.45 µM, the pIC50 [2] was 5.20 and the pIC50 [3] was 5.38. The pIC50 [4] was 5.28.

In the case of COc1ccc(C2=NN(C(=O)c3ccc(F)cc3)C(c3ccc4c(c3)OCO4)C2)cc1 (configuration not stated), the IC50 [1] was 7.69 µM, the pIC50 [2] was 5.75 and the pIC50 [3] was 5.97. The pIC50 [4] was 5.73.
